Consider 10 compounds from ChEMBL document CHEMBL1201862, “PubChem BioAssay data set” (2004).

Experiment in all cases: NCI-60 cell line screen, 48 h
For test [1], the system named is OVCAR-4.
Test [2] deals with HCT-15.
Test [3] deals with HOP-92.
Test [4] deals with ACHN.
Test [5] relates to HCC 2998.
The subject of test [6] is TK-10.
Test [7] has as its system 786-0.
Test [8] has as its system MCF7.
For test [9], the system named is SK-OV-3.
Test [10] deals with SK-MEL-5.
The subject of test [11] is NCI-H23.
For test [12], the system named is T47D.
The test system of test [13] is MDA-MB-435.
Test [14] concerns SNB-75.
The test system of test [15] is CAKI-1.
The test system of test [16] is KM12.
For test [17], the system named is HT-29.
Test [18] deals with IGROV-1.
Test [19] deals with HOP-62.
In test [20] the test system is EKVX.

Molecules are shown by their SMILES.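 Protocol summary: plate cells (96-well), add compound at 5 concentrations, incubate 48 h, interpolate endpoints linearly. The concentration for 50% growth inhibition is given as GI50.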 The source made the active and inactive calls. Cut-off read from the data, not from the text of the source: active = GI50 up to about 1.1 µM and inactive = higher. Square brackets hold non-standard residues; d marks the D form. Peptide text beside a SMILES is read from it. * marks the point of attachment. X26 = COC1=CC(=O)N(C(=O)[C@@H](O*)C(C)C)[C@H]1Cc1ccccc1; Bn2Val = CC(C)[C@@H](C(=O)*)N(Cc1ccccc1)Cc1ccccc1; NMeV = CN[C@H](C(=O)O)C(C)C; dNMeA = CN[C@H](C)C(=O)O

Turning to `CC(C)(C)N1C(=O)[N-]/[N+](=C(/C(c2ccccc2)=[N+]2/[N-]C(=O)N(C(C)(C)C)C2=O)c2ccccc2)C1=O`, the GI50 in test [1] is > 100 µM (inactive); in test [2], > 100 µM; in test [3], > 100 µM (inactive); in test [4], > 100 µM (inactive); in test [5] it was > 100 µM (inactive); in test [6] it was > 100 µM (inactive). The GI50 in test [7], in test [8], in test [9], in test [10], in test [11] and in test [12] was > 100 µM (inactive) throughout. For the same compound, the GI50 in [13], in [14], in [15] and in test [16] was > 100 µM (inactive) each time.
Regarding `CCn1c(=O)c2nc(SC)sc2n(-c2ccc(C)cc2)c1=O`, the GI50 in test [17] is > 100 µM (inactive); in test [1] it was > 100 µM (inactive); in test [2], > 100 µM; in [3], > 100 µM (inactive); in test [4], > 100 µM (inactive); in test [5] it was > 100 µM (inactive). Besides, the GI50 was > 100 µM (inactive) in test [6]; 0.401 µM (active) in test [7]; > 100 µM (inactive) in test [8]; > 100 µM (inactive) in [9]; > 100 µM (inactive) in test [18]; > 100 µM (inactive) in [10]. The GI50 in test [11] was > 100 µM (inactive); in test [12] it was > 100 µM (inactive); in test [13], 2.17 µM (inactive); in [14] it was 29.4 µM (inactive); in [19], > 100 µM (inactive); in test [16], 88.9 µM (inactive).
Turning to `CCCCCCCCCC[C@H](O)[C@H](O)CC[C@@H](O)[C@H]1CC[C@@H]([C@H]2CC[C@H](CCCCCCC[C@@H](O)CC3=C[C@H](C)OC3=O)O2)O1`, the GI50 is 2.2 µM (inactive) in [17]; 24.4 µM (inactive) in [1]; 3.87 µM in [2]; 6.32 µM (inactive) in [3]; 17.4 µM (inactive) in test [4]; 18.8 µM (inactive) in test [5]. Also, the GI50 in test [6] is 4.95 µM (inactive); in [7] it was 6.3 µM (inactive); in test [8], 1.16 µM (inactive); in [18], 2.72 µM (inactive); in test [10], 1.06 µM (active); in [11], 0.00746 µM (active). Also, the GI50 was 3.16 µM (inactive) in [12]; 1.31 µM (inactive) in test [13]; 2.41 µM (inactive) in test [14]; 1.46 µM (inactive) in test [20]; 2.42 µM (inactive) in [19]; 2.25 µM (inactive) in [15]. In addition, the GI50 in test [16] was 2.22 µM (inactive).
`COC1=CC(=O)N(C(=O)[C@@H](OC(=O)[C@@H](C)N(C)C(=O)[C@@H]2CCCN2C(=O)[C@H](C(C)C)N(C)C(=O)[C@@H](NC(=O)[C@H](C(C)C)N(Cc2ccccc2)Cc2ccccc2)C(C)C)C(C)C)[C@H]1Cc1ccccc1` (Bn2Val-V[NMeV]P[dNMeA]-X26): the GI50 in test [17] was > 100 µM (inactive); in [1], > 100 µM (inactive); in test [2] it was > 100 µM; in test [3], > 49.3 µM (inactive); in [4], > 100 µM (inactive); in test [5], > 100 µM (inactive). The GI50 was > 100 µM (inactive) in test [6]; 98.2 µM (inactive) in [7]; 8.65 µM (inactive) in test [8]; > 100 µM (inactive) in test [9]; > 100 µM (inactive) in test [18]; 23.9 µM (inactive) in [10]. For the same compound, the GI50 in test [12] is > 100 µM (inactive); in test [13], > 100 µM (inactive); in [20], > 44.5 µM (inactive); in test [19] it was > 57.3 µM (inactive); in [15] it was > 100 µM (inactive); in [16], > 31.3 µM (inactive).
On to `CCCCc1ccc(N2C(=O)c3cccnc3S2(=O)=O)cc1`, for which the GI50 in test [17] is > 100 µM (inactive); in test [1], > 100 µM (inactive); in test [2], > 100 µM; in test [3], > 100 µM (inactive); in [4], > 100 µM (inactive); in [5], > 100 µM (inactive). In addition, the GI50 in [7], in test [8], in test [9], in test [18], in [11] and in test [12] was > 100 µM (inactive) throughout. Further, the GI50 in [13], in test [14], in test [20], in test [19], in test [15] and in [16] was > 100 µM (inactive) in each case.
For the compound `O=C([O-])C1([n+]2c(-c3ccccc3)cc(-c3ccccc3)cc2-c2ccccc2)CC1`, the GI50 in [17] is 48.8 µM (inactive); in test [1], 96.8 µM (inactive); in [2] it was > 100 µM; in test [3], 19.8 µM (inactive); in test [4], > 100 µM (inactive); in test [5], 29.3 µM (inactive). Besides, the GI50 was > 100 µM (inactive) in test [6]; 57.1 µM (inactive) in test [7]; 28.1 µM (inactive) in test [8]; 32.8 µM (inactive) in [18]; 19.6 µM (inactive) in test [10]; 86.9 µM (inactive) in test [11]. The GI50 is 16 µM (inactive) in test [12]; 19.2 µM (inactive) in test [13]; 46.8 µM (inactive) in test [14]; 22.7 µM (inactive) in test [20]; > 100 µM (inactive) in [19].
Consider `COc1ccc(C2N(c3ccc(F)c([N+](=O)[O-])c3)C(=O)N3C(c4ccc(OC)cc4)N(c4ccc(F)c([N+](=O)[O-])c4)C(=O)N23)cc1` (stereo unspecified), for which the GI50 in [17] is > 100 µM (inactive); in test [1], > 100 µM (inactive); in test [2], > 100 µM; in [3], 23.1 µM (inactive); in test [4], > 100 µM (inactive); in test [5] it was > 100 µM (inactive). Besides, the GI50 in [6], in test [7], in [8], in test [18], in [10] and in test [11] was > 100 µM (inactive) each time. In addition, the GI50 in test [12], in [13], in test [14], in [20], in test [19] and in test [15] was > 100 µM (inactive) each time. The GI50 in [16] is > 100 µM (inactive).
Take `CCOC(=O)c1ccc(/N=C2\Sc3nc4ccccc4n3\C2=N\c2ccc(C(=O)OCC)cc2)cc1`: the GI50 in test [17] was 19.6 µM (inactive); in [1] it was 24.3 µM (inactive); in [2], 51.4 µM; in test [3], 12.8 µM (inactive); in test [4] it was 22.3 µM (inactive); in test [5], 41.8 µM (inactive). Further, the GI50 is 17.3 µM (inactive) in [6]; 11.8 µM (inactive) in test [7]; 8.83 µM (inactive) in test [8]; 40.8 µM (inactive) in [9]; 19.5 µM (inactive) in test [18]; 25.9 µM (inactive) in [10]. Also, the GI50 in test [11] was 22.6 µM (inactive); in test [12], 48.1 µM (inactive); in [13] it was 59.2 µM (inactive); in test [20] it was 42.6 µM (inactive); in [19], 21.5 µM (inactive); in test [15], 23 µM (inactive). The GI50 in test [16] is 20.1 µM (inactive).
With `CC1N[B@@-](C)(c2ccc(C(F)(F)F)cc2)OC1c1ccccc1` (stereo partly specified), the GI50 was 72.1 µM (inactive) in [17]; > 100 µM (inactive) in test [1]; 49.1 µM in test [2]; 20.4 µM (inactive) in test [3]; 36.9 µM (inactive) in test [4]; > 100 µM (inactive) in test [5]. Besides, the GI50 in test [6] is > 100 µM (inactive); in [7] it was > 100 µM (inactive); in test [8], 59.7 µM (inactive); in test [9], > 100 µM (inactive); in test [18] it was > 100 µM (inactive); in [10], 87.7 µM (inactive). Moreover, the GI50 in test [11] is > 100 µM (inactive); in test [12], > 100 µM (inactive); in [13] it was > 100 µM (inactive); in [14], 32.6 µM (inactive); in [20], 41.4 µM (inactive); in [19], > 100 µM (inactive).
Consider `CC(C)(C)n1c(=O)n2n(c1=O)C1c3cccc4cccc(c34)C2C2c3cccc4cccc(c34)C1n1c(=O)n(C(C)(C)C)c(=O)n12`, for which the GI50 in test [17] is > 100 µM (inactive); in test [2], 74.5 µM; in test [3] it was > 100 µM (inactive); in test [4], 61.4 µM (inactive); in test [5] it was 64.3 µM (inactive); in test [6], 93.5 µM (inactive). Moreover, the GI50 in test [7] was > 100 µM (inactive); in test [8], > 100 µM (inactive); in [9] it was 96.8 µM (inactive); in test [18], 21.7 µM (inactive); in [10], > 100 µM (inactive); in [11], 95.7 µM (inactive). Further, the GI50 in test [12] is 44.9 µM (inactive); in test [13], > 100 µM (inactive); in [14] it was 10.8 µM (inactive); in test [20] it was 63.1 µM (inactive); in test [19], 67.3 µM (inactive); in test [15], 6.65 µM (inactive). Besides, the GI50 in test [16] was > 100 µM (inactive).
